Data published in PMC9697614, “Rufinamide, a Triazole-Derived Antiepileptic Drug, Stimulates Ca^2+-Activated K^+ Currents While Inhibiting Voltage-Gated Na^+ Currents” (International Journal of Molecular Sciences, 2022).

Biological target: T1, large-conductance Ca2+-activated K+ channel (BKCa, KCa1.1, KCNMA1, Slo1) (Rattus norvegicus, UniProt Q62976)
T1 construct: native channel in pituitary GH3 cells
Experiment: patch clamp: inside-out single-channel recordings (RFM on cytosolic face) and whole-cell IK(Ca) concentration-response
Format: cell-based

T1 sequence (Q62976 whole entry): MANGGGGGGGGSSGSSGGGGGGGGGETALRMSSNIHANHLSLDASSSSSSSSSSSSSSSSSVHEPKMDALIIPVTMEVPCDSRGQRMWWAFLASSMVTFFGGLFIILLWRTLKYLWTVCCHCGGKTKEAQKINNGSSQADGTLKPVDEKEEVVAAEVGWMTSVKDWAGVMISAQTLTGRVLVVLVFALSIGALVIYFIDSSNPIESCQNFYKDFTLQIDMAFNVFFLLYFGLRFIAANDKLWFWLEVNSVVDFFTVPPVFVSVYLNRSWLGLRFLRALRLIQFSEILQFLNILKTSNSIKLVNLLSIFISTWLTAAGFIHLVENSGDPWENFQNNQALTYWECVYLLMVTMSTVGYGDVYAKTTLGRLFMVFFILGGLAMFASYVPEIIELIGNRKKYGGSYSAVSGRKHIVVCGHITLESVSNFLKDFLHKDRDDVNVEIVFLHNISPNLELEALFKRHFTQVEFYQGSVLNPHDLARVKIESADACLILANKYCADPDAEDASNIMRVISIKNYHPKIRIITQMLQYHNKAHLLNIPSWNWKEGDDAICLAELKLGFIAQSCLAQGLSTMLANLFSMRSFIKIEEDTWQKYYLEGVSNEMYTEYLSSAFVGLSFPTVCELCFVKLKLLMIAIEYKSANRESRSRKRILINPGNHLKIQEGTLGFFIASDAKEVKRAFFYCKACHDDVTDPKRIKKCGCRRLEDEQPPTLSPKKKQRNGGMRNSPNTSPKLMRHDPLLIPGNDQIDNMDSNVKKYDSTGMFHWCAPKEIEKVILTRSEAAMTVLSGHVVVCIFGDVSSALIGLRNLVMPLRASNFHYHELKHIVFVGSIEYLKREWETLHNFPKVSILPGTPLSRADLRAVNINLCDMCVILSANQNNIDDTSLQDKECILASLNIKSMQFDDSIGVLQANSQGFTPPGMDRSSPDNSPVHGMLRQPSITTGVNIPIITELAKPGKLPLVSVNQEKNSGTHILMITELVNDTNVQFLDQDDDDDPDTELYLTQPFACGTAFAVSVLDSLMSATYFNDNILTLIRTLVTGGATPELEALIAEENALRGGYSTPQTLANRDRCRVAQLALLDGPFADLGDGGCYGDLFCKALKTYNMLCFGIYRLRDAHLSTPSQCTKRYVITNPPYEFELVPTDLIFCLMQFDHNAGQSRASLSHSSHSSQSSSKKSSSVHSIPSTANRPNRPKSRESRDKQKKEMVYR

NC(=O)c1cn(Cc2c(F)cccc2F)nn1 [RFM, 1-((2,6-difluorophenyl)methyl)-1H-1,2,3-triazole-4carboxamide]
EC50: 3.9 µM
